Experimental data published in ChEMBL document CHEMBL1150977, “A quantitative analysis of kinase inhibitor selectivity” (Nat Biotechnol, 2008).

What was measured:
[1] = target: Activated CDC42 kinase 1 (Homo sapiens, UniProt Q07912)
[2] = target: Mitogen-activated protein kinase 9 (Homo sapiens, UniProt P45984)
[3] = target: T1, Atypical kinase COQ8B, mitochondrial (Homo sapiens, UniProt Q96D53)
T1 sequence (Q96D53 whole entry): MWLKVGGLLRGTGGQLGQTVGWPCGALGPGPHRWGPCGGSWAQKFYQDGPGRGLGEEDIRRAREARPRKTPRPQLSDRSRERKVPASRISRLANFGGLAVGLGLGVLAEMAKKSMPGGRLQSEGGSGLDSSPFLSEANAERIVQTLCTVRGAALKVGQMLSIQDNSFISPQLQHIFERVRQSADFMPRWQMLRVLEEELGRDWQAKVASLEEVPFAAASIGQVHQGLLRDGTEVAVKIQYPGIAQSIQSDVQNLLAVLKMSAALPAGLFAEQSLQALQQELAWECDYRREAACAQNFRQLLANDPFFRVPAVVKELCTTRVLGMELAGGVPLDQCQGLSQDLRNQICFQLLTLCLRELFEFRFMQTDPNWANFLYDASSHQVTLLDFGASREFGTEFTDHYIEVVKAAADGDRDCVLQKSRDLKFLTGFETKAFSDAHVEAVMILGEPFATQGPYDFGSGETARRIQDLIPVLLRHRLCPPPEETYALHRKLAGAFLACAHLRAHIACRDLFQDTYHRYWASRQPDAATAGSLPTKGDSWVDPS

[4] = target: T2, 3-phosphoinositide-dependent protein kinase 1 (Homo sapiens, UniProt O15530)
T2 sequence (O15530 whole entry): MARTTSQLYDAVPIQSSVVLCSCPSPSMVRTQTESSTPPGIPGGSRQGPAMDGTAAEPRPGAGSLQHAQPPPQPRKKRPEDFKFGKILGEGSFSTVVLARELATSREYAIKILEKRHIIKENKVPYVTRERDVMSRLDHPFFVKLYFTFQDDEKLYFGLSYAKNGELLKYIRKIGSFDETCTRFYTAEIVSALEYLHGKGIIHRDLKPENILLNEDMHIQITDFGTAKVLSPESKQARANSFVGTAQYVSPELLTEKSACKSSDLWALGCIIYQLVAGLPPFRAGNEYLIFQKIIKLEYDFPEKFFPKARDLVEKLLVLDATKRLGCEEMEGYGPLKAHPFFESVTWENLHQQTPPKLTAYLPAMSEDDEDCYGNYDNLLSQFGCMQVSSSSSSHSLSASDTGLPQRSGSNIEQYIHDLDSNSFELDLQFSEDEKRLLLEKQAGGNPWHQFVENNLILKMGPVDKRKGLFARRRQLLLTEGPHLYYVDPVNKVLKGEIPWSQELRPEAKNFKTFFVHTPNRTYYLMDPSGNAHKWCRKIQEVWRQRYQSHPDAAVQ

[5] = target: BDNF/NT-3 growth factors receptor (Homo sapiens, UniProt Q16620)
Chain of BDNF/NT-3 growth factors receptor (Q16620 whole entry): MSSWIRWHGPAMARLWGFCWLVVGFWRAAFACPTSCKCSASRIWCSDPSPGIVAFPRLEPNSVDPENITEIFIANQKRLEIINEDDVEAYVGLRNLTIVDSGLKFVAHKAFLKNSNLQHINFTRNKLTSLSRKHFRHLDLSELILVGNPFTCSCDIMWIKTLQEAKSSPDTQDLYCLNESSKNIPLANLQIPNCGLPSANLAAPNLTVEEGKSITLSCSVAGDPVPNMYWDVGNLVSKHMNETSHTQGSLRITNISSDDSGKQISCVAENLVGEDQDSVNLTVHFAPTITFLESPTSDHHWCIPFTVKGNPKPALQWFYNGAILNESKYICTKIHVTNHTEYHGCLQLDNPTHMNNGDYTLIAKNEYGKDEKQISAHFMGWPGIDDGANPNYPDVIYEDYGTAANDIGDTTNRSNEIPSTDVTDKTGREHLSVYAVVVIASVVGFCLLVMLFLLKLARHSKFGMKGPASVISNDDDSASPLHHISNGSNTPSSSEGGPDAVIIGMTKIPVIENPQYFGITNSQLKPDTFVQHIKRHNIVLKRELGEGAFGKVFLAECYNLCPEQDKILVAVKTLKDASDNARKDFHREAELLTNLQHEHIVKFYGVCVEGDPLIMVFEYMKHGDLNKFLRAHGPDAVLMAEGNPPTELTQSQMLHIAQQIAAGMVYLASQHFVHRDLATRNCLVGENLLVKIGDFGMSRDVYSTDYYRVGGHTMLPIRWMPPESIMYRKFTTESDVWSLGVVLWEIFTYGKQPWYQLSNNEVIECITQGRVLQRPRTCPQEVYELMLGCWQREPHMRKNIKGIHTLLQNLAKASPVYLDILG

[6] = target: MAP kinase-interacting serine/threonine-protein kinase 1 (Homo sapiens, UniProt Q9BUB5)
Chain of MAP kinase-interacting serine/threonine-protein kinase 1 (Q9BUB5 whole entry): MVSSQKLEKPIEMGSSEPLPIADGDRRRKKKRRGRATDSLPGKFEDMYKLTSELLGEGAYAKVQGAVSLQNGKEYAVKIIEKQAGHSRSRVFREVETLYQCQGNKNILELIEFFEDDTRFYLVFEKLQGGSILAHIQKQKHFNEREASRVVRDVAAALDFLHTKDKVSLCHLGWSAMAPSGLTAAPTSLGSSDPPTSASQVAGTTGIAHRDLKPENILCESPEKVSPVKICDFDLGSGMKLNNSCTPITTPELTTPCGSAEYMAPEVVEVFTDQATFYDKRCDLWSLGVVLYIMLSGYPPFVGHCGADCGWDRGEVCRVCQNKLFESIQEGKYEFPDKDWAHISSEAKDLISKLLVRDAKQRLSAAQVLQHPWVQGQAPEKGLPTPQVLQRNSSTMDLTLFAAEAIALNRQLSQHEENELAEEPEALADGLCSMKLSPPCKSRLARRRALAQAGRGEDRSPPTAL

[7] = target: T3, Ephrin type-A receptor 3 (Homo sapiens, UniProt P29320)
T3 sequence (P29320 whole entry): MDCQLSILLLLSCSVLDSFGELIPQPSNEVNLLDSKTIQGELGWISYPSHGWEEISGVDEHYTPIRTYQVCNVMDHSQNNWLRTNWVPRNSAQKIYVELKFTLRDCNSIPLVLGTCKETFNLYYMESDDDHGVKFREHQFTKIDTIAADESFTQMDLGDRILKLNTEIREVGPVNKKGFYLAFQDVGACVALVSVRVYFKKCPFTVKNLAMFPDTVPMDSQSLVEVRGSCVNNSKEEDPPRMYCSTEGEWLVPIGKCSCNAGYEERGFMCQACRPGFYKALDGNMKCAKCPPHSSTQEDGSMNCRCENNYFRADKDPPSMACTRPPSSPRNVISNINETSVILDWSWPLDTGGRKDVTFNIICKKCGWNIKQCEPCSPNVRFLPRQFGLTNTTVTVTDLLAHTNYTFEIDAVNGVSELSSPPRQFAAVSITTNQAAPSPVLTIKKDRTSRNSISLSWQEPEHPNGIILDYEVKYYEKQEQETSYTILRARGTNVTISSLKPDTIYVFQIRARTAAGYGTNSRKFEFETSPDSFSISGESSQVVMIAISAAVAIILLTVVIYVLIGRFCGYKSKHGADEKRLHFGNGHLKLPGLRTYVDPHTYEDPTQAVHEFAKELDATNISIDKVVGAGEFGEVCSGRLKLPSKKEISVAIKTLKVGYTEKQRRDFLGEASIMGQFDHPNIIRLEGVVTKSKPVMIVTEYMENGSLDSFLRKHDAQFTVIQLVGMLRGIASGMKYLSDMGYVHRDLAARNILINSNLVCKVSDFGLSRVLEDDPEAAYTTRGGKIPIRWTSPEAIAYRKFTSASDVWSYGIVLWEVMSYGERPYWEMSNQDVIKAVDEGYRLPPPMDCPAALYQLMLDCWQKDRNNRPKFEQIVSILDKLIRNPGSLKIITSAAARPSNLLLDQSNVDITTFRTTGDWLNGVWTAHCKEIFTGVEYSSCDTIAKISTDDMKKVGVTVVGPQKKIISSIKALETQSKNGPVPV

Chain of Mitogen-activated protein kinase 9 (P45984 whole entry): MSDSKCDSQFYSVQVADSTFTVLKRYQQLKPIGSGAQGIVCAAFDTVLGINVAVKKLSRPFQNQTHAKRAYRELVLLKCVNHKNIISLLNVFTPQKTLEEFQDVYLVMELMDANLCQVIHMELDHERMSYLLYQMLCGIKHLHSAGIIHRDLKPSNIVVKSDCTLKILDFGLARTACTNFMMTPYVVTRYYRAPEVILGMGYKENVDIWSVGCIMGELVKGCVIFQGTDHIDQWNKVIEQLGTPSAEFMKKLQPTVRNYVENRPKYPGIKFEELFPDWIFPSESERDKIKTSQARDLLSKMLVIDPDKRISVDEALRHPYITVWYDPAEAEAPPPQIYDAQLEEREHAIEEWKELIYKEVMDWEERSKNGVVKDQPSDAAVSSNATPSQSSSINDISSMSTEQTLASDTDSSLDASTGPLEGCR
Chain of Activated CDC42 kinase 1 (Q07912 whole entry): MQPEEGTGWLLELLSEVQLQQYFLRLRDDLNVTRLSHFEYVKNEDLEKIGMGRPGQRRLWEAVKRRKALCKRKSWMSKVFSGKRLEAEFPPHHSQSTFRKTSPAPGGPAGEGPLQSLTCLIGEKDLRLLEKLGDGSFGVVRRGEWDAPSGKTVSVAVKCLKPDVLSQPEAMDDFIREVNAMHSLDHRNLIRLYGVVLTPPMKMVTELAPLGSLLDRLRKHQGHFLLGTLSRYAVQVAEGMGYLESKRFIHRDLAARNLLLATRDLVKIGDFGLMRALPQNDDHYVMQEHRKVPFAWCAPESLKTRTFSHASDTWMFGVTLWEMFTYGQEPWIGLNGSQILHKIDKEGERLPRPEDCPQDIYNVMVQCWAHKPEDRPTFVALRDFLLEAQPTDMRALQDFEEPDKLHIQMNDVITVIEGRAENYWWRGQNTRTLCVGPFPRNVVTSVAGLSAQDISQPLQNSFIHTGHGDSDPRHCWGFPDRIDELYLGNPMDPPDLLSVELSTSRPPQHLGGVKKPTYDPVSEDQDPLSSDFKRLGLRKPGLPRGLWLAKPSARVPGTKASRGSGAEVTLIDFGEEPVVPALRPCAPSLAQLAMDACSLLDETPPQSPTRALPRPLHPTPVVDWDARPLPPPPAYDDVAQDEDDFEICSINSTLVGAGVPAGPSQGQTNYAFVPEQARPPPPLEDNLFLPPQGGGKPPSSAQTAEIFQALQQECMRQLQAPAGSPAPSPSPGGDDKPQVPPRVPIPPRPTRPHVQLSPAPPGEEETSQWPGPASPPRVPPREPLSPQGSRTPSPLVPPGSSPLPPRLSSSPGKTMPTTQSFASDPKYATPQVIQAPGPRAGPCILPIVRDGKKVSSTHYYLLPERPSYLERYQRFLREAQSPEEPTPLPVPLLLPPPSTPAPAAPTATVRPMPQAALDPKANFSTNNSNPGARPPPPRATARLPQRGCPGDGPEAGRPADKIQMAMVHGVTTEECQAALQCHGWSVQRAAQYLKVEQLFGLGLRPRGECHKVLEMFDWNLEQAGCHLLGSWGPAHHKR

Row | Structure (SMILES) | Kd [1] [µM] | Kd [2] [µM] | Kd [3] [µM] | Kd [4] [µM] | Kd [5] [µM] | Kd [6] [µM] | Kd [7] [µM]
1 | CCOc1cc2ncc(C#N)c(Nc3ccc(F)c(Cl)c3)c2cc1NC(=O)/C=C/CN(C)C [PELITINIB] | 5.2 | > 10 | 6.1 | > 10 | > 10 | > 10 | 
2 | COCC(=O)NC/C=C/c1ccc2ncnc(Nc3ccc(Oc4ccc(C)nc4)c(C)c3)c2c1 [CP-724714] | > 10 | > 10 | > 10 | > 10 | > 10 | > 10 | > 10
3 | NC(=O)c1ccc(-c2nc(-c3ccc4c(c3)OCO4)c(-c3ccccn3)[nH]2)cc1 [SB-431542] | > 10 | > 10 | > 10 | > 10 | > 10 | > 10 | > 10
4 | Nc1nc(Nc2ccc(S(N)(=O)=O)cc2)nn1C(=O)c1c(F)cccc1F [JNJ-7706621] |  |  | > 10 | 3.1 | > 10 | > 10 | > 10
5 | Oc1ccc(-c2nc(-c3ccncc3)c(-c3ccc(F)cc3)[nH]2)cc1 [SB-202190] | > 10 |  | 4.9 | > 10 | > 10 | > 10 | > 10
